Measured values as given in patent US7659394B2 (Pfizer Inc, priority 2004, dated 2010).
Where two headings read alike, the source gives them in different places.

How the values were obtained:
[1] = target: T1, human norepinephrine transporter (Homo sapiens, UniProt P23975); test: hNET receptor binding ([125I]-RTI-55 radioligand binding); settings: membranes of HEK-293 cells transfected with human norepinephrine transporter, IC50 converted to Ki by Cheng-Prusoff
T1 construct: host or cells: HEK-293
Summary of the method: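 Membranes from HEK-293 cells transfected with human NET. Nonspecific binding defined with 10 μM desipramine, duplicates. IC50 by nonlinear regression, converted to Ki with Cheng-Prusoff.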

[2] = target: T2, human seritonin transporter (Homo sapiens, UniProt P31645); test: hSERT receptor binding ([125I]-RTI-55 radioligand binding); settings: membranes of HEK-293 cells transfected with human seritonin transporter, IC50 converted to Ki by Cheng-Prusoff, read-out: SERT (Ki)
T2 construct: host or cells: HEK-293
T2 sequence (P31645 whole entry): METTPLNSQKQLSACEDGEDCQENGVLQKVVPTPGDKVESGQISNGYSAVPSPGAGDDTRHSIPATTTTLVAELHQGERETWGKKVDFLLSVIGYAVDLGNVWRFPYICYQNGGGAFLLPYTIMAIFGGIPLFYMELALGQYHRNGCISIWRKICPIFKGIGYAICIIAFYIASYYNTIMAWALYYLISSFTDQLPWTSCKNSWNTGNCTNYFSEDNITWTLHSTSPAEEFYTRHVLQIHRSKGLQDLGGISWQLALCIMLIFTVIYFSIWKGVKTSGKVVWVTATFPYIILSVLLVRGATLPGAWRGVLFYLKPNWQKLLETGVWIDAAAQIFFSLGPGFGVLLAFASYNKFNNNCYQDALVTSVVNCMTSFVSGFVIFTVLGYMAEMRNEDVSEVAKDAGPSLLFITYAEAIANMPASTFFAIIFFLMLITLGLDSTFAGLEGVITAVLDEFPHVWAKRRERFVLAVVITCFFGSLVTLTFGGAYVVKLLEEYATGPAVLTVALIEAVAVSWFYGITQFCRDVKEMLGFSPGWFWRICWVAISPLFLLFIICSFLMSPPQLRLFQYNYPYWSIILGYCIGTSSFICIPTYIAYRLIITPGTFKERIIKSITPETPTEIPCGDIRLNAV

T1 sequence (P23975 whole entry): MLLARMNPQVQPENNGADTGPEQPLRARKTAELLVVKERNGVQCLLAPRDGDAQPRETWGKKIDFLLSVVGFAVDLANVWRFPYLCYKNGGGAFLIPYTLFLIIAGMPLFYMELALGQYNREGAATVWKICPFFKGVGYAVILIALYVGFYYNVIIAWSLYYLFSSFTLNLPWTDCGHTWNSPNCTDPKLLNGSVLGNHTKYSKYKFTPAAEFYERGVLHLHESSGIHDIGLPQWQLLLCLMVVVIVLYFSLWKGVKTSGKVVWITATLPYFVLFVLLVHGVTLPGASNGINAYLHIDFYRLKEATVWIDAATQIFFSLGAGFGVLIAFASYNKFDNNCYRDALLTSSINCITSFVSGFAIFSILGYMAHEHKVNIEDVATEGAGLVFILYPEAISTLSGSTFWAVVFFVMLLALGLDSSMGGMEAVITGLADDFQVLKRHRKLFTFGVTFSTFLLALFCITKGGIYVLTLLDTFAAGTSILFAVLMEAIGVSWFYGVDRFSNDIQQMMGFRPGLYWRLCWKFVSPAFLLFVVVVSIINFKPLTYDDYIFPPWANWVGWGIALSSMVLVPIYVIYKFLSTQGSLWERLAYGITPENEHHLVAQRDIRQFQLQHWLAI

Structure (SMILES)	Ki ([1]; read-out: hNET (Ki))	Ki [2]	Ki ([1]; hNET (Ki))
N#Cc1ccccc1O[C@@H](c1ccccn1)[C@@H]1CNCCO1 [Example 125, 2-[(S)-(2S)-morpholin-2-yl(pyridin-2-yl)methoxy]benzonitrile]	11 nM	≥ 10000 nM	–
CCOc1ccc(F)cc1OC(c1ccccc1)[C@@H]1CNCCO1 (stereo partly drawn) [Example 169, (2S)-2-[(2-ethoxy-5-fluorophenoxy)(phenyl)methyl]morpholine]	6 nM	2980 nM	–
Fc1cccc(F)c1OC(C1=CCCC1)[C@@H]1CNCCO1 (mixture of isomers) [Example 146, (2S)-2-[(S)-cyclopent-1-en-1-yl(2,6-difluorophenoxy)methyl]morpholine]	20 nM	3700 nM	–
CN(C)c1ccccc1O[C@@H](c1ccccc1)[C@@H]1CNCCO1 [Example 64, (2S,3S)-Dimethyl-[2-(morpholin-2-yl-phenyl-methoxy)-phenyl]-amine]	119 nM	≥ 10000 nM	–
CCOc1ccccc1OC(CC1CCCCC1)[C@@H]1CNCCO1 (stereo partly drawn) [Example 37, (S)-2-[(S)-2-Cyclohexyl-1-(2-ethoxy-phenoxy)-ethyl]-morpholine and (2S,3-R)-2-[2-Cyclohexyl-1-(2-ethoxy-phenoxy)-ethyl]-morpholine]	12 nM	163 nM	–
Fc1ccc(Cl)c(OC(c2ccccc2)[C@@H]2CNCCO2)c1 (stereo partly drawn) [Example 94, (2S)-2-[(2-chloro-5-fluorophenoxy)(phenyl)methyl]morpholine]	8 nM	811 nM	–
Fc1cccc(F)c1OC(c1cccc2c1OCC2)[C@@H]1CNCCO1 (stereo partly drawn) [Example 163, (2S)-2-[(2,6-difluorophenoxy)(2,3-dihydro-1-benzofuran-7-yl)methyl]morpholine]	13 nM	446 nM	–
Fc1ccccc1OC(c1ccccn1)[C@@H]1CNCCO1 (single isomer, unassigned) [Example 121]	470 nM	≥ 10000 nM	–
c1ccc([C@H](Oc2ccccc2N2CCNCC2)[C@@H]2CNCCO2)cc1 [Example 52, (S)-2-[(S)-Phenyl-(2-piperazin-1-yl-phenoxy)-methyl]-morpholine]	–	1350 nM	1620 nM
CC(C)Oc1ccccc1O[C@@H](c1ccccc1)[C@@H]1CNCCO1 [Example 46, (S)-2-[(S)-(2-Isopropoxy-phenoxy)-phenyl-methyl]-morpholine]	6.5 nM	5630 nM	–
Cc1coc(C(Oc2ccccc2OC(F)(F)F)[C@@H]2CNCCO2)n1 (stereo partly drawn) [Example 174, (2S)-2-{(4-methyl-1,3-oxazol-2-yl)[2-(trifluoromethoxy)phenoxy]methyl}morpholine]	18 nM	7520 nM	–
Fc1ccc(O[C@@H](c2ccccn2)[C@H]2CNCCO2)c(F)c1 [Example 28]	8410 nM	1410 nM	–
Cc1ccccc1-c1ccccc1OCC1CNCCO1 (racemic) [Example 88, 2-(2′-Methyl-biphenyl-2-yloxymethyl)-morpholine]	633 nM	≥ 10000 nM	–
COc1cccc([C@H](Oc2ccccc2OC(F)(F)F)[C@@H]2CNCCO2)n1 [Example 109, (2S)-2-{(S)-(6-methoxypyridin-2-yl)[2-(trifluoromethoxy)phenoxy]methyl}morpholine]	16 nM	364 nM	–
c1ccc(-c2ccccc2O[C@@H](c2ccccn2)[C@@H]2CNCCO2)cc1 [Example 153, (2S)-2-[(S)-(biphenyl-2-yloxy)(pyridin-2-yl)methyl]morpholine]	14 nM	6320 nM	–
COCc1ccccc1O[C@@H](c1ccccc1)[C@@H]1CNCCO1 [Example 7, (S)-2-[(S)-(2-Methoxymethyl-phenoxy)-phenyl-methyl]-morpholine]	17 nM	6610 nM	–
CCc1ccccc1O[C@@H](c1ccccc1)[C@@H]1CNCCO1 [Example 98, (2S)-2-[(S)-(2-ethylphenoxy)(phenyl)methyl]morpholine]	22 nM	1140 nM	–
CCSc1ccccc1O[C@@H](c1ccccc1)[C@@H]1CNCCO1 [Example 2, (S)-2-[(S)-(2-Ethylsulfanyl-phenoxy)-phenyl-methyl]-morpholine]	6.3 nM	564 nM	–
c1ccc(Oc2ncccc2OC[C@H]2CNCCO2)cc1 [Example 77, (R)-2-(2-Phenoxy-pyridin-3-yloxymethyl)-morpholine]	3160 nM	≥ 10000 nM	–
C=Cc1ccccc1O[C@@H](c1ccccc1)[C@@H]1CNCCO1 [Example 5, (S)-2-[(S)-Phenyl-(2-vinyl-phenoxy)-methyl]-morpholine]	13 nM	1180 nM	–
c1ccc(Oc2ccccc2O[C@@H](c2ccccc2)[C@@H]2CNCCO2)cc1 [Example 14, (S)-2-[(S)-(2-Phenoxy-phenoxy)-phenyl-methyl]-morpholine]	61 nM	≥ 10000 nM	–
CC(C)Cc1ccccc1O[C@@H](c1ccccc1)[C@@H]1CNCCO1 [Example 3, (S)-2-[(S)-(2-isobutyl-phenoxy)-phenyl-methyl]-morpholine]	33 nM	1580 nM	–
Fc1cccc(F)c1OC(Cc1ccccc1)[C@@H]1CNCCO1 (mixture of isomers) [Example 101, (2S)-2-[1-(2,6-difluorophenoxy)-2-phenylethyl]morpholine]	66 nM	912 nM	–
Cc1ccc(-c2ncccc2O[C@@H](c2ccccc2)[C@@H]2CNCCO2)cc1 [Example 42, (S)-2-[(S)-Phenyl-(2-p-tolyl-pyridin-3-yloxy)-methyl]-morpholine]	68 nM	4940 nM	–
c1ccc(Cc2ccccc2O[C@@H](c2ccccn2)[C@@H]2CNCCO2)cc1 [Example 128, (2S)-2-[(S)-(2-benzylphenoxy)(pyridin-2-yl)methyl]morpholine]	11 nM	3320 nM	–
Cc1coc(C(Oc2ccccc2Br)[C@@H]2CNCCO2)n1 (stereo partly drawn) [Example 177, (2S)-2-[(2-bromophenoxy)(4-methyl-1,3-oxazol-2-yl)methyl]morpholine]	7 nM	1960 nM	–

The remaining compounds from weak to strong by Ki ([1]; read-out: hNET (Ki)), led by results:

Ki ([1]; read-out: hNET (Ki))	Ki [2]	Structure (SMILES)	Ki ([1]; hNET (Ki))
7970 nM	≥ 10000 nM	Fc1ccc(Oc2nccnc2OCC2CNCCO2)cc1 (stereo in doubt) [Example 78, (S)-2-[3-(4-Fluoro-phenoxy)-pyrazin-2-yloxymethyl]-morpholine]	–
595 nM	≥ 10000 nM	Clc1ccccc1-c1ccccc1OCC1CNCCO1 (centres unmarked) [Example 73, 2-(2′-Chloro-biphenyl-2-yloxymethyl)-morpholine]	–
317 nM	828 nM	c1ccc([C@H](Oc2cccnc2)[C@@H]2CNCCO2)cc1 [Example 40, (S)-2-[(S)-Phenyl-(pyridin-3-yloxy)-methyl]-morpholine]	–
210 nM	7720 nM	N#Cc1ccccc1OC(c1cccnc1)[C@@H]1CNCCO1 (stereo partly drawn) [Example 24, (2S,3R)-2-(Morpholin-2-yl-pyridin-3-yl-methoxy)-benzonitrile]	–
85 nM	1200 nM	Fc1ccc(Oc2ncccc2O[C@@H](c2ccccc2)[C@@H]2CNCCO2)cc1 [Example 65, (S)-2-{(S)-[2-(4-Fluoro-phenoxy)-pyridin-3-yloxy]-phenyl-methyl}-morpholine]	–
41 nM	2460 nM	c1ccc([C@H](Oc2ccccc2C2CCCCC2)[C@@H]2CNCCO2)cc1 [Example 56, (S)-2-[(S)-(2-Cyclohexyl-phenoxy)-phenyl-methyl]-morpholine]	–
28 nM	2540 nM	CCOCc1ccccc1O[C@@H](c1ccccc1)[C@@H]1CNCCO1 [Example 63, (S)-2-[(S)-(2-Ethoxymethyl-phenoxy)-phenyl-methyl]-morpholine]	–
18 nM	2550 nM	CC(C)c1ncccc1O[C@@H](c1ccccc1)[C@@H]1CNCCO1 [Example 179, (2S)-2-[(S)-[(2-isopropylpyridin-3-yl)oxy](phenyl)methyl]morpholine]	–
14 nM	801 nM	FCc1ccccc1OC(c1ccccc1)[C@@H]1CNCCO1 (stereo partly drawn) [Example 156, (2S)-2-[[2-(fluoromethyl)phenoxy](phenyl)methyl]morpholine]	–
12 nM	2240 nM	c1ccc([C@H](Oc2ccccc2C2CCCC2)[C@@H]2CNCCO2)cc1 [Example 55, (S)-2-[(S)-(2-Cyclopentyl-phenoxy)-phenyl-methyl]-morpholine]	–
12 nM	65 nM	Clc1cccc(Cl)c1O[C@@H](c1ccccc1)[C@@H]1CNCCO1 [Example 62, (S)-2-[(S)-(2,6-Dichloro-phenoxy)-phenyl-methyl]-morpholine]	–
10 nM	9650 nM	Fc1ccc(Oc2ncccc2OC[C@@H]2CNCCO2)cc1F [Example 79, (S)-2-[2-(3,4-Difluoro-phenoxy)-pyridin-3-yloxymethyl]-morpholine]	–
8 nM	1350 nM	COc1ncccc1O[C@@H](c1ccccc1)[C@@H]1CNCCO1 [Example 166, (2S)-2-[(S)-[(2-methoxypyridin-3-yl)oxy](phenyl)methyl]morpholine]	–
7 nM	7370 nM	CCOc1cccc(F)c1O[C@@H](c1ccccn1)[C@@H]1CNCCO1 [Example 159, (2S)-2-[(S)-(2-ethoxy-6-fluorophenoxy)(pyridin-2-yl)methyl]morpholine]	–
7 nM	6280 nM	CCCc1ccccc1O[C@@H](c1ccccn1)[C@@H]1CNCCO1 [Example 127, (2S)-2-[(S)-(2-propylphenoxy)(pyridin-2-yl)methyl]morpholine]	–
6.8 nM	2500 nM	CCOc1ccccc1O[C@@H](c1ccccn1)[C@@H]1CNCCO1 [Example 21, (S)-2-[(S)-(2-Ethoxy-phenoxy)-pyridin-2-yl-methyl]-morpholine]	–
4 nM	351 nM	CC(C)Oc1cccc(F)c1O[C@@H](c1ccccc1)[C@@H]1CNCCO1 [Example 165, (2S)-2-[(S)-(2-fluoro-6-isopropoxyphenoxy)(phenyl)methyl]morpholine]	–
